Assay results from ChEMBL document CHEMBL6092222 (J Med Chem, 2024).
Converted amounts (≈) assume the structure as drawn.

Columns and labels:
[1] = Solubility of compound in FaSSIF at pH 6.5 by reversed-phase UPLC analysis; format: physicochemical
[2] = Prodrug conversion in Sprague-Dawley rat assessed as Cmax of 6-(cyclopropanecarboxamido)-4-((2-methoxy-3-(2-methyl-2H-tetrazol-5-yl)phenyl)amino)-N-(methyl-d3)nicotinamide metabolite at 5 mg/kg, po measured for 24 hrs by UPLC-MS/MS analysis; format: ADME, organism-based; details: in vivo
[3] = Prodrug conversion in Sprague-Dawley rat assessed as AUC of 6-(cyclopropanecarboxamido)-4-((2-methoxy-3-(2-methyl-2H-tetrazol-5-yl)phenyl)amino)-N-(methyl-d3)nicotinamide metabolite at 150 mg/kg, po measured for 24 hrs by UPLC-MS/MS analysis; format: ADME, organism-based; details: in vivo
[4] = Cmax in Sprague-Dawley rat at 25 mg/kg, po measured for 24 hrs by UPLC-MS/MS analysis; format: ADME, organism-based; details: in vivo
[5] = Prodrug conversion in Pentagastrine-pretreated Sprague-Dawley rat assessed as AUC (total) of 6-(cyclopropanecarboxamido)-4-((2-methoxy-3-(2-methyl-2H-tetrazol-5-yl)phenyl)amino)-N-(methyl-d3)nicotinamide metabolite at 10 mg/kg, po measured for 24 hrs by UPLC-MS/MS analysis; format: ADME, organism-based; details: in vivo
[6] = Prodrug conversion in Sprague-Dawley rat assessed as AUC of 6-(cyclopropanecarboxamido)-4-((2-methoxy-3-(2-methyl-2H-tetrazol-5-yl)phenyl)amino)-N-(methyl-d3)nicotinamide metabolite at 25 mg/kg, po measured for 24 hrs by UPLC-MS/MS analysis; format: ADME, organism-based; details: in vivo
[7] = AUC in Sprague-Dawley rat at 25 mg/kg, po measured for 24 hrs by UPLC-MS/MS analysis; format: ADME, organism-based; details: in vivo
[8] = Prodrug conversion in Famotidine-pretreated Sprague-Dawley rat assessed as Cmax of 6-(cyclopropanecarboxamido)-4-((2-methoxy-3-(2-methyl-2H-tetrazol-5-yl)phenyl)amino)-N-(methyl-d3)nicotinamide metabolite at 10 mg/kg, po measured for 24 hrs by UPLC-MS/MS analysis; format: ADME, organism-based; details: in vivo
[9] = molecular target: Intestinal-type alkaline phosphatase (Homo sapiens, UniProt P09923); test: (§1) Prodrug conversion in tris buffer at pH 7.4 assessed as intestinal recombinant human ALP-mediated 6-(cyclopropanecarboxamido)-4-((2-methoxy-3-(2-methyl-2H-tetrazol-5-yl)phenyl)amino)-N-(methyl-d3)nicotinamide metabolite formation by measuring half life of metabolite at 1 uM incubated for 30 mins by UPLC-MS/MS analysis; format: ADME; details: pH 7.4, 0.5 h
Intestinal-type alkaline phosphatase, sequence (P09923 whole entry): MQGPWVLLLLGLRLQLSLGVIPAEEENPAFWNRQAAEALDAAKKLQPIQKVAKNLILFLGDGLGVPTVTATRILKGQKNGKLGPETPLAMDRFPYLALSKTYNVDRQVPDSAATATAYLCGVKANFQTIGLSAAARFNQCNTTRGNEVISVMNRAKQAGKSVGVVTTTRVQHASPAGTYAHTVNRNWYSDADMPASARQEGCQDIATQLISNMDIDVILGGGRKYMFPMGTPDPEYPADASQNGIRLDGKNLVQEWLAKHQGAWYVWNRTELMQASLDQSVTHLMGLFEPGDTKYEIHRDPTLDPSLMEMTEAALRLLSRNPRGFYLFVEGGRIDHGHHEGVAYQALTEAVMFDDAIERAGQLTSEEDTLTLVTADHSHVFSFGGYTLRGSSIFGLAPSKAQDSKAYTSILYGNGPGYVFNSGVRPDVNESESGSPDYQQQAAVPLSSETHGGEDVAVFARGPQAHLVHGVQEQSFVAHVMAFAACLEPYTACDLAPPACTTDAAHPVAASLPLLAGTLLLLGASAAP

[10] = Prodrug conversion in Sprague-Dawley rat assessed as Cmax of 6-(cyclopropanecarboxamido)-4-((2-methoxy-3-(2-methyl-2H-tetrazol-5-yl)phenyl)amino)-N-(methyl-d3)nicotinamide metabolite at 150 mg/kg, po measured for 24 hrs by UPLC-MS/MS analysis; format: ADME, organism-based; details: in vivo
[11] = Chemical stability of compound in acetate buffer at pH 4 at 37 degreeC assessed as half life measured for 24 hrs by reversed phase-HPLC analysis; format: physicochemical
[12] = AUC in Sprague-Dawley rat at 5 mg/kg, po measured for 24 hrs by UPLC-MS/MS analysis; format: ADME, organism-based; details: in vivo
[13] = Chemical stability of compound in phosphate buffer at pH 6.5 at 37 degreeC assessed as half life measured for 24 hrs by reversed phase-HPLC analysis; format: physicochemical
[14] = Cmax in Sprague-Dawley rat at 5 mg/kg, po measured for 24 hrs by UPLC-MS/MS analysis; format: ADME, organism-based; details: in vivo
[15] = Prodrug conversion in Famotidine-pretreated Sprague-Dawley rat assessed as Tmax of 6-(cyclopropanecarboxamido)-4-((2-methoxy-3-(2-methyl-2H-tetrazol-5-yl)phenyl)amino)-N-(methyl-d3)nicotinamide metabolite at 10 mg/kg, po measured for 24 hrs by UPLC-MS/MS analysis; format: ADME, organism-based; details: in vivo
[16] = Prodrug conversion in Sprague-Dawley rat assessed as Tmax of 6-(cyclopropanecarboxamido)-4-((2-methoxy-3-(2-methyl-2H-tetrazol-5-yl)phenyl)amino)-N-(methyl-d3)nicotinamide metabolite at 150 mg/kg, po measured for 24 hrs by UPLC-MS/MS analysis; format: ADME, organism-based; details: in vivo
[17] = Prodrug conversion in Sprague-Dawley rat assessed as Cmax of 6-(cyclopropanecarboxamido)-4-((2-methoxy-3-(2-methyl-2H-tetrazol-5-yl)phenyl)amino)-N-(methyl-d3)nicotinamide metabolite at 25 mg/kg, po measured for 24 hrs by UPLC-MS/MS analysis; format: ADME, organism-based; details: in vivo
[18] = Chemical stability of compound in 0.1 M HCl at pH 1 at 37 degreeC assessed as half life measured for 24 hrs by reversed phase-HPLC analysis; format: physicochemical
[19] = Tmax in Sprague-Dawley rat at 5 mg/kg, po measured for 24 hrs by UPLC-MS/MS analysis; format: ADME, organism-based; details: in vivo
[20] = Prodrug conversion in Pentagastrine-pretreated Sprague-Dawley rat assessed as Cmax of 6-(cyclopropanecarboxamido)-4-((2-methoxy-3-(2-methyl-2H-tetrazol-5-yl)phenyl)amino)-N-(methyl-d3)nicotinamide metabolite at 10 mg/kg, po measured for 24 hrs by UPLC-MS/MS analysis; format: ADME, organism-based; details: in vivo
physchem [21] = details: aqueous buffer, pH 1
Description: Solubility of compound in aqueous buffer at pH 1 at 25 degreeC by reversed phase-HPLC analysis

[22] = Prodrug conversion in Sprague-Dawley rat assessed as Tmax of 6-(cyclopropanecarboxamido)-4-((2-methoxy-3-(2-methyl-2H-tetrazol-5-yl)phenyl)amino)-N-(methyl-d3)nicotinamide metabolite at 25 mg/kg, po measured for 24 hrs by UPLC-MS/MS analysis; format: ADME, organism-based; details: in vivo
[23] = Prodrug conversion in Sprague-Dawley rat assessed as AUC of 6-(cyclopropanecarboxamido)-4-((2-methoxy-3-(2-methyl-2H-tetrazol-5-yl)phenyl)amino)-N-(methyl-d3)nicotinamide metabolite at 5 mg/kg, po measured for 24 hrs by UPLC-MS/MS analysis; format: ADME, organism-based; details: in vivo
physchem [24] = details: aqueous buffer, pH 6.5
Description: Solubility of compound in aqueous buffer at pH 6.5 at 25 degreeC by reversed phase-HPLC analysis

physchem [25] = details: aqueous buffer, pH 4
Description: Solubility of compound in aqueous buffer at pH 4 at 25 degreeC by reversed phase-HPLC analysis

[26] = Prodrug conversion in Famotidine-pretreated Sprague-Dawley rat assessed as AUC (total) of 6-(cyclopropanecarboxamido)-4-((2-methoxy-3-(2-methyl-2H-tetrazol-5-yl)phenyl)amino)-N-(methyl-d3)nicotinamide metabolite at 10 mg/kg, po measured for 24 hrs by UPLC-MS/MS analysis; format: ADME, organism-based; details: in vivo
[27] = Tmax in Sprague-Dawley rat at 25 mg/kg, po measured for 24 hrs by UPLC-MS/MS analysis; format: ADME, organism-based; details: in vivo
[28] = Prodrug conversion in Sprague-Dawley rat assessed as Tmax of 6-(cyclopropanecarboxamido)-4-((2-methoxy-3-(2-methyl-2H-tetrazol-5-yl)phenyl)amino)-N-(methyl-d3)nicotinamide metabolite at 5 mg/kg, po measured for 24 hrs by UPLC-MS/MS analysis; format: ADME, organism-based; details: in vivo
[29] = Solubility of compound in FeSSIF at pH 5 by reversed-phase UPLC analysis; format: physicochemical
[30] = Prodrug conversion in Pentagastrine-pretreated Sprague-Dawley rat assessed as Tmax of 6-(cyclopropanecarboxamido)-4-((2-methoxy-3-(2-methyl-2H-tetrazol-5-yl)phenyl)amino)-N-(methyl-d3)nicotinamide metabolite at 10 mg/kg, po measured for 24 hrs by UPLC-MS/MS analysis; format: ADME, organism-based; details: in vivo
[31] = molecular target: Intestinal-type alkaline phosphatase 1 (Rattus norvegicus, UniProt P15693); test: as §1, with “rat” for “human”; format: ADME; details: pH 7.4, 0.5 h
Intestinal-type alkaline phosphatase 1, sequence (P15693 whole entry): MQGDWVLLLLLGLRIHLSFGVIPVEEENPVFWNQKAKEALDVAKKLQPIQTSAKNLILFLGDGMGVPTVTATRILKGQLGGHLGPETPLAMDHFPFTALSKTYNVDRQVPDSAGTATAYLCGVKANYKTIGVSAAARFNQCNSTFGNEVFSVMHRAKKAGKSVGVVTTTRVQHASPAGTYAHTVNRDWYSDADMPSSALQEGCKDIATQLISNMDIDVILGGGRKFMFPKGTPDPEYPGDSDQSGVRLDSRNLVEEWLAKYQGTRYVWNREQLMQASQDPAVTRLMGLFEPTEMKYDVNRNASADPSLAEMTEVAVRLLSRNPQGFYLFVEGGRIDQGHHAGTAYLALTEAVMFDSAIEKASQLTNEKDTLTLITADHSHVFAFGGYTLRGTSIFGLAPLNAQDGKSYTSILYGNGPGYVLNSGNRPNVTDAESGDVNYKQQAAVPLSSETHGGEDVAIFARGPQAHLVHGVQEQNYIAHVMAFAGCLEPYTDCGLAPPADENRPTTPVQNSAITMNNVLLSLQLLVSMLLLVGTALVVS

- solubility [1]: 1630 µg/mL (≈ 3040 µM)
- Cmax [2]: 4.91 µM
- AUC [3]: 804.3 µM·h
- Cmax [4]: Below_limit_of_detection
- AUC [5]: 63 µM·h
- AUC [6]: 96.9 µM·h
- AUC [7]: Below_limit_of_detection
- Cmax [8]: 12.4 µM
- t1/2 [9]: < 5 min
- Cmax [10]: 58.2 µM
- half-life [11]: 11.9 days
- AUC [12]: Below_limit_of_detection
- half-life [13]: 2.8 days
- Cmax [14]: Below_limit_of_detection
- Tmax [15]: 1.5 h
- Tmax [16]: 3 h
- Cmax [17]: 13 µM
- half-life [18]: > 20.8 days
- Tmax [19]: Below_limit_of_detection
- Cmax [20]: 11.4 µM
- solubility (physchem [21]): 16 µg/mL (≈ 29.9 µM)
- Tmax [22]: 3 h
- AUC [23]: 19.2 µM·h
- solubility (physchem [24]): 660 µg/mL (≈ 1230 µM)
- solubility (physchem [25]): 27 µg/mL (≈ 50.4 µM)
- AUC [26]: 69 µM·h
- Tmax [27]: Below_limit_of_detection
- Tmax [28]: 30 min
- solubility [29]: 100 µg/mL (≈ 187 µM)
- Tmax [30]: 1 h
- t1/2 [31]: < 5 min
SMILES: [2H]C([2H])([2H])NC(=O)c1cn(COP(=O)(O)O)/c(=N/C(=O)C2CC2)cc1Nc1cccc(-c2nnn(C)n2)c1OC
